Experimental data reported in publication PMC6757289, “Design and Characterization of SGK3-PROTAC1, an Isoform Specific SGK3 Kinase PROTAC Degrader” (ACS Chemical Biology, 2019).

Columns and labels:
Format in all cases: cell-based
SGK1 = target: T1, SGK1 (Homo sapiens, UniProt O00141); experiment: SGK1 protein level in HEK293 cells, immunoblot; conditions: HEK293, 48 h
T1 sequence (O00141 1-431): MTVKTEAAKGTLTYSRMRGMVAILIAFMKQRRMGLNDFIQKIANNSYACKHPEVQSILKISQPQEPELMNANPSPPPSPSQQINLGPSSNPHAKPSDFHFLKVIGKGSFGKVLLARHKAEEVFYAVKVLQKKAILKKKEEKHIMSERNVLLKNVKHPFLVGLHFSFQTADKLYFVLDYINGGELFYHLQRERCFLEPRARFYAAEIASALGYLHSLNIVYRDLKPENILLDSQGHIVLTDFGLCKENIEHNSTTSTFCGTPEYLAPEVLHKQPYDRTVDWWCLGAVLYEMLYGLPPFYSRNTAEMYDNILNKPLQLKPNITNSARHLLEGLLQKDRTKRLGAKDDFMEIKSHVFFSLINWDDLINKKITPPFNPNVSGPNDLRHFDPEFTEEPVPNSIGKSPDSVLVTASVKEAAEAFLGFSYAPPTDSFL
Experimental: (§1) A medium length linker composed of three PEG units was used in the first instance (Figure 1B and C). […] After 48 h of PROTAC treatment, cell lysates were analyzed by immunoblot analysis, and protein expression under each condition was quantified relative to the DMSO-only control. […] DAT1 reduced SGK3 expression by 60% at 1 μM and 75% at 10 μM after 48 h (Figure 1D). […] As expected, inhibition of CUL2 neddylation by means of the inhibitor MLN4924 (3 μM) or proteasome inhibition (MG132, 50 μM) blocked DAT1-induced degradation of SGK3 (Figure S1C).
(§2) All cell treatments were carried out as described in figure legends, to a final DMSO concentration of 0.1% (v/v). Lysates were quantified. Immunoblotting was performed using standard procedures, described in brief below. Lysate concentration was quantified by Bradford Assay, and 10 μg of lysate was loaded in the LDS sample buffer for SDS-PAGE electrophoresis on Novex 4–12% Bis–Tris gels. Proteins were electrophoretically transferred onto nitrocellulose membranes (Amersham Protran 0.45 μm NC; GE Healthcare) at 80 V for 80 min on ice in transfer buffer. […] The signal was produced with near-infrared secondary antibodies and detected using a Licor Biosciences Odyssey System, and the signal was quantified in Image Studio Lite.

SGK2 = target: T2, SGK2 (Homo sapiens, UniProt Q9HBY8); experiment: SGK2 protein level in HEK293 cells, immunoblot; conditions: HEK293, 48 h
T2 construct: reduced endogenous SGK isoform or S6K1 expression when administered to HEK293 cells for 48 h; endogenous in cells; host or cells: HEK293
Experimental: as §1, §2

SGK3 = target: T3, SGK3 (Homo sapiens, UniProt Q96BR1); experiment: SGK3 degradation in ZR-75-1 cells, immunoblot; conditions: for SGK3 expression: ZR-75-1, 5 days 1 μM GDC0941 or AZD5363, 0.3 μM for 5 days or 8 h
T3 sequence (Q96BR1 1-496): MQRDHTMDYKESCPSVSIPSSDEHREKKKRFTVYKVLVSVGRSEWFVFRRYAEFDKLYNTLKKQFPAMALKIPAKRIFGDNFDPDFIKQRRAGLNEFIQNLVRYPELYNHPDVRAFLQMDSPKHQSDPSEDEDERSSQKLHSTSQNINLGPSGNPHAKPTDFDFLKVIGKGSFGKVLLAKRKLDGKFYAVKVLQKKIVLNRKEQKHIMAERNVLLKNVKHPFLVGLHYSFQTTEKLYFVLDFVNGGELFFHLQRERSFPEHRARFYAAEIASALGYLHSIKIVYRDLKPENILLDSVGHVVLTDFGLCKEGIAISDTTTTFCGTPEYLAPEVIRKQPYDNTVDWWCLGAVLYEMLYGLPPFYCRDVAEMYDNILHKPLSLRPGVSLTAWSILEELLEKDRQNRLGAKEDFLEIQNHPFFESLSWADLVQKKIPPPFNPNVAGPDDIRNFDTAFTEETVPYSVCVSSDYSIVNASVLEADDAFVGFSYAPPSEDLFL
Experimental: Figure 3 Characterization of cellular activities of SGK3-PROTAC1 and cisSGK3-PROTAC1. (A) HEK293 cells were first treated for 8 h with 0.03–3 μM SGK3-PROTAC1 and cisSGK3-PROTAC1. One hour before lysis, cells were treated with 3 μM AZD5363. Lysates were subjected to immunoblot analysis with the indicated antibodies. […] Lysates were subjected to immunoblot analysis with the indicated antibodies. (C) HEK293 cells were treated for up to 48 h with SGK3-PROTAC1 (0.3 μM), and lysates were analyzed by immunoblot analysis using the indicated antibodies. (D) HEK293 cells were treated for 24 h with SGK3-PROTAC1. Cells were washed three times with DMEM to wash out the compound, and recovery of SGK3 expression protein was analyzed by immunoblot analysis. (E–G) As in A except that CAMA-1 (E), ZR-75-1 (F), and JIMT-1 (G) cells were employed rather than HEK293 cells.
Figure 5 SGK3-PROTAC1-mediated degradation of SGK3 inhibits Akt-independent activation of mTORC1 in cancer cell lines treated with Akt or PI3K inhibitors. CAMA-1 (A, C) or ZR-75-1 (B, D) were treated for 5 days with 1 μM GDC0941 (A, B) or 1 μM AZD5363 (C, D). Cells were treated with the compounds indicated for either 5 days or 8 h before lysis; cells were treated with the compounds indicated. Cell lysates were subject to immunoblot analysis with the indicated antibodies.
All cell treatments were carried out as described in figure legends, to a final DMSO concentration of 0.1% (v/v). Lysates were quantified. Immunoblotting was performed using standard procedures, described in brief below. Lysate concentration was quantified by Bradford Assay, and 10 μg of lysate was loaded in the LDS sample buffer for SDS-PAGE electrophoresis on Novex 4–12% Bis–Tris gels. Proteins were electrophoretically transferred onto nitrocellulose membranes (Amersham Protran 0.45 μm NC; GE Healthcare) at 80 V for 80 min on ice in transfer buffer. Transferred membranes were blocked with 5% (w/v) nonfat dry milk dissolved in TBS-T [20 mM Tris/HCl, pH 7.5, 150 mM NaCl, and 0.1% (v/v) Tween 20] at RT for 30 min, before incubation with the primary antibody overnight at 4 °C. The signal was produced with near-infrared secondary antibodies and detected using a Licor Biosciences Odyssey System, and the signal was quantified in Image Studio Lite.

[1] = tested on: mTORC1-mediated phosphorylation of S6K1 at Thr389; experiment: mTORC1 signaling in CAMA-1 cells treated with PI3K or Akt inhibitor, immunoblot; conditions: CAMA-1, 5 days 1 μM GDC0941 or AZD5363; 0.3 μM
Experimental: (§3) We therefore aimed to investigate the effect that degradation of SGK3 would have on this resistance pathway and whether SGK3-PROTAC1 treatment could reverse inhibitor resistance. To investigate the effect of SGK3-PROTAC1 under these conditions, we treated CAMA-1 (Figure 5A,C) or ZR-75-1 (Figure 5B,D) for 5 days with either a class 1A PI3K inhibitor (GDC0941 1 μM;[38]Figure 5A,B) or an Akt inhibitor (AZD5363, 1 μM;[39]Figure 5C,D). These cells were treated with SGK3-PROTAC1 or cisSGK3-PROTAC1 (0.3 μM) for either 5 days in combination with the inhibitors or 8 h before lysis.
(§4) Figure 5 SGK3-PROTAC1-mediated degradation of SGK3 inhibits Akt-independent activation of mTORC1 in cancer cell lines treated with Akt or PI3K inhibitors. CAMA-1 (A, C) or ZR-75-1 (B, D) were treated for 5 days with 1 μM GDC0941 (A, B) or 1 μM AZD5363 (C, D). […]
(§5) All cell treatments were carried out as described in figure legends, to a final DMSO concentration of 0.1% (v/v). Lysates were quantified. […] Lysate concentration was quantified by Bradford Assay, and 10 μg of lysate was loaded in the LDS sample buffer for SDS-PAGE electrophoresis on Novex 4–12% Bis–Tris gels. […] The signal was produced with near-infrared secondary antibodies and detected using a Licor Biosciences Odyssey System, and the signal was quantified in Image Studio Lite.

[2] = tested on: mTORC1-mediated phosphorylation of S6K1 at Thr389; experiment: mTORC1 signaling in ZR-75-1 cells treated with PI3K or Akt inhibitor, immunoblot; conditions: ZR-75-1, 5 days 1 μM GDC0941 or AZD5363; 0.3 μM
Experimental: as §3, §4, §5

T2 sequence (Q9HBY8 whole entry, canonical isoform): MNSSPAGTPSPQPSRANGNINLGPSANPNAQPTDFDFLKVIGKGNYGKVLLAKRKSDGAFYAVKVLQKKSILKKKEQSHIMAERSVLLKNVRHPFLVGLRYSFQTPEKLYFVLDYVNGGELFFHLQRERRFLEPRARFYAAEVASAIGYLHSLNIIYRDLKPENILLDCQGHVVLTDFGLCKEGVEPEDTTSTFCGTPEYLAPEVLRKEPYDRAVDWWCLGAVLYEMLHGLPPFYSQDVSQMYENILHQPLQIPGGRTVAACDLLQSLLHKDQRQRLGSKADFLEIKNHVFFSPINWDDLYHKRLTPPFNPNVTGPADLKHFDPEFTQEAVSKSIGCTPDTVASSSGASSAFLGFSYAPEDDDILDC

SMILES	SGK1 level (SGK1; 0.1 μM)	SGK2 level (SGK2; 0.1 μM)	concentration inducing degradation of SGK3 (SGK3; ZR-75-1, 8 h) [µM]	SGK3 expression (SGK3)	phosphorylation of S6K1 at Thr389 [1]	phosphorylation of S6K1 at Thr389 [2]	SGK1 level (SGK1; up to 10 μM)	SGK2 level (SGK2; up to 10 μM)	degradation of SGK3 (SGK3; ZR-75-1, 8 h, 0.03–3 μM)
Cc1ccc(F)c(S(=O)(=O)Nc2ccc(-c3nc(OC[C@H]4CN(CCCCCCOCCOCCOCC(=O)N[C@H](C(=O)N5C[C@H](O)C[C@H]5C(=O)NCc5ccc(-c6scnc6C)cc5)C(C)(C)C)CCO4)c4cn[nH]c4n3)cc2)c1 [SGK3-PROTAC1]	without effecting	without effecting	> 0.1	substantially reduced	suppressed	suppressed			
Cc1ccc(F)c(S(=O)(=O)Nc2ccc(-c3nc(OC[C@H]4CN(CCOCCOCCOCC(=O)N[C@H](C(=O)N5C[C@H](O)C[C@H]5C(=O)NCc5ccc(-c6scnc6C)cc5)C(C)(C)C)CCO4)c4cn[nH]c4n3)cc2)c1 [DAT1]							not significantly impacted	not significantly impacted	
Cc1ccc(F)c(S(=O)(=O)Nc2ccc(-c3nc(OC[C@H]4CN(CCCCCCOCCOCCOCC(=O)N[C@H](C(=O)N5C[C@@H](O)C[C@H]5C(=O)NCc5ccc(-c6scnc6C)cc5)C(C)(C)C)CCO4)c4cn[nH]c4n3)cc2)c1 [cisSGK3-PROTAC1]				no significant effect	no significant effect	no significant effect			no impact
